Laboratory results: US11857322B2, “Systems and methods for screening, diagnosing, and stratifying patients” (BlackThorn Therapeutics, Inc., priority 2018, dated 2024)

Experiments:
[1] = test system: patients with major depressive disorder; assay: Randomized, placebo controlled study of BTRX-246040 in patients with major depressive disorder; assay type: in vivo, human
Description: The disclosed systems and methods were used in a randomized, placebo controlled study to identify patients that would respond to BTRX-246040 (LY2940094)—a nociceptin receptor antagonist (“NOPA”). Details about the chemical structure and other properties, uses and indications for BTRX-246040 are disclosed in J M Witkin et al., “Therapeutic Approaches for NOP Receptor Antagonists in Neurobehavioral Disorders: Clinical Studies in Majority Depressive Disorder and Alcohol Use Disorder with BTRX-246040,” the content of which is incorporated herein by reference in its entirety. Additionally, BTRX-246040, it's uses, indications, treatments, and forms are disclosed in U.S. Pat. No. 8,232,289 filed Nov. 10, 2010, titled “Spiropiperidine Compounds as ORL-1 Receptor Antagonists” and U.S. Publication NO. 2012/0214784 filed Aug. 23, 2012 titled “Spiropiperidine Compounds as ORL-1 Receptor Antagonists,” both of which are incorporated by reference in their entirety herein.
During the study disclosed herein, BTRX-246040 was administered once daily in patients with major depressive disorder without anhedonia. The study included 73 patients with 38 randomized to BTRX-246040 and 35 randomized to the placebo. The BTRX group had 17 responders and the placebo had 15 responders. The study included the following methods: • 28 days screening period • Eight (8 (weeks of active treatment • Off-drug follow up after one to two weeks • 104 MDD patients randomized • 1:1 ratio stratified by SHAPS≤4 and SHAPS>4 • dosage: 40 mg first week, then 80 mg onwards when tolerated
The following are known clinical questionnaires that were utilized at the indicated time points above: • Montgomery-Asberg Depression Scale (MADRS) • Hamilton Anxiety Scale (HAMA) • Hospital Anxiety and Depression Scale (HADS-A/HADS-D) • Snaith-Hamilton Pleasure Scale (SHAPS) • Dimensional Anhedonia Rating Scale (DARS) Tasks
The primary outcome of the study utilized was the clinical scale MADRS total at week 8. […]

[2] = test system: patients with mood and anxiety spectrum disorders; assay: FAST-MAS phase 2a study of CERC-501 in mood and anxiety spectrum disorders; assay type: in vivo, human
Description: In another example, during a phase 2a study known as FAST-MAS was run to evaluate the Kappa Opioid Receptor (“KOR”) as a target for the treatment of mood and anxiety spectrum disorders. Additionally, CERC-501, it's uses, indications, treatments, and forms are disclosed in PCT Publication No. WO2018170492, filed Mar. 16, 2018, titled “Kappa Opioid Receptor Antagonists and Products and Methods Related Thereto” which is incorporated by reference herin in its entirety. During the trial, CERC-501 was tested to see whether it engaged key neural circuitry related to the hedonic response.
The FAST-MAS trial included a 30-day screening period, followed by 8 weeks of active treatment, follow up 12 weeks of off-drug follow up after baseline. The study included […] (of 163 enrolled) to include 45 on CERC-501 and 44 to the Placebo. The patients received […] daily for the 8 weeks of active treatment.
Patients were eligible for enrollment if they met both: • (i) DSM-IV TR critiera for at least one of: • MDD • Bipolar I or II Depressed • GAD • Social Phobia • Panic Disorder • PTSD; and • (ii) SHAPS score of ≥20
Furthermore, the primary outcome measures were the following measures included in Table 7 below. These include the fMRI, the SHAPS scale, and the PRT task as disclosed herein

| SMILES | number of responders ([1]; 38 patients randomized to BTRX-246040, once daily, 40 mg first week then 80 mg, 8 weeks, high responder = MADRS decrease by 50% from baseline) | group level treatment effects versus placebo ([1]; across all subjects, MADRS total at week 8, FIGS. 15A-15B) | change on the MADRS scale in patients identified by the classifiers as higher responders ([1]; after the 8-week study, subgroup chosen by classifiers from baseline data, FIGS. 16A-16B) | impact on patients identified using the Bayesian Decision Lists versus patients generally that received active treatment ([2]; subgroup identified by rule list, FIGS. 26A-26B) | outcome and treatment response ([2]; whole patient cohort, 8 weeks of active treatment) |
| --- | --- | --- | --- | --- | --- |
| Cc1nn(-c2ncccc2CO)cc1CN1CCC2(CC1)OCC(F)(F)c1cc(Cl)sc12 [BTRX-246040] | 17 | did as well as the placebo | greater than 5 point | – | – |
| Cc1cc(C)cc([C@@H]2CCCN2Cc2ccc(Oc3ccc(C(N)=O)cc3F)cc2)c1 [CERC-501] | – | – | – | greater on the patients identified using the Bayesian Decision Lists than the impact generally on the patients that received the active treatment | illustrated a difference in the outcome and treatment response |
